According to PubChem BioAssay (NCI):
Several values for one entry are separate records, joined by “and”; a condition that tells them apart may be missing. Identical values can stand only once.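 Cells were grown in 96-well plates and exposed to each compound for 48 hours at five concentrations; endpoints were interpolated linearly between bracketing concentrations, or set to the highest concentration if not reached. Abbreviation: GI50, concentration required for 50% inhibition of growth. TGI marks complete inhibition of growth.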

Key:
Test in all cases: NCI tumour cell line growth inhibition, 48 h
786-0 renal = test system: 786-0 renal
A498 renal = test system: A498 renal
A549 NSCLC = test system: A549 NSCLC
ACHN renal = test system: ACHN renal
BT-549 breast = test system: BT-549 breast
CAKI-1 renal = test system: CAKI-1 renal
CCRF-CEM leukemia = test system: CCRF-CEM leukemia
COLO 205 colon = test system: COLO 205 colon
DU-145 prostate = test system: DU-145 prostate
EKVX NSCLC = test system: EKVX NSCLC
HCC-2998 colon = test system: HCC-2998 colon
HCT-116 colon = test system: HCT-116 colon
HCT-15 colon = test system: HCT-15 colon
HL-60(TB) leukemia = test system: HL-60(TB) leukemia
HOP-62 NSCLC = test system: HOP-62 NSCLC
HOP-92 NSCLC = test system: HOP-92 NSCLC
HS 578T breast = test system: HS 578T breast
HT29 colon = test system: HT29 colon
IGROV1 ovarian = test system: IGROV1 ovarian
K-562 leukemia = test system: K-562 leukemia
KM12 colon = test system: KM12 colon
LOX IMVI melanoma = test system: LOX IMVI melanoma
M14 melanoma = test system: M14 melanoma
MALME-3M melanoma = test system: MALME-3M melanoma
MCF7 breast = test system: MCF7 breast
MDA-MB-231 breast = test system: MDA-MB-231 breast
MDA-MB-435 = test system: MDA-MB-435
MOLT-4 leukemia = test system: MOLT-4 leukemia
NCI-H226 lung = test system: NCI-H226 lung
NCI-H23 lung = test system: NCI-H23 lung
NCI-H460 lung = test system: NCI-H460 lung
NCI-H522 lung = test system: NCI-H522 lung
NCI/ADR-RES ovarian = test system: NCI/ADR-RES ovarian
OVCAR-3 ovarian = test system: OVCAR-3 ovarian
OVCAR-4 ovarian = test system: OVCAR-4 ovarian
OVCAR-5 ovarian = test system: OVCAR-5 ovarian
OVCAR-8 ovarian = test system: OVCAR-8 ovarian
PC-3 prostate = test system: PC-3 prostate
RPMI-8226 leukemia = test system: RPMI-8226 leukemia
RXF 393 renal = test system: RXF 393 renal
SF-268 CNS = test system: SF-268 CNS
SF-295 CNS = test system: SF-295 CNS
SF-539 CNS = test system: SF-539 CNS
SK-MEL-2 melanoma = test system: SK-MEL-2 melanoma
SK-MEL-28 melanoma = test system: SK-MEL-28 melanoma
SK-MEL-5 melanoma = test system: SK-MEL-5 melanoma
SK-OV-3 ovarian = test system: SK-OV-3 ovarian
SN12C renal = test system: SN12C renal
SNB-19 CNS = test system: SNB-19 CNS
SNB-75 CNS = test system: SNB-75 CNS
SR leukemia = test system: SR leukemia
SW-620 colon = test system: SW-620 colon
T-47D breast = test system: T-47D breast
TK-10 renal = test system: TK-10 renal
U251 CNS = test system: U251 CNS
UACC-257 melanoma = test system: UACC-257 melanoma
UACC-62 melanoma = test system: UACC-62 melanoma
UO-31 renal = test system: UO-31 renal

`FC(F)(F)c1ccc(CNc2ccc(Cc3c[nH]c4ncc(Cl)cc34)cn2)cn1` was tested, and the GI50 (786-0 renal) was 5.33 µM and 4.19 µM, the TGI (786-0 renal) was 19.5 µM and > 10 µM and the GI50 (A498 renal) was 2.08 µM and 4.41 µM. The TGI (A498 renal) was 14 µM and > 10 µM, the GI50 (A549 NSCLC) was 10.5 µM and > 10 µM and the TGI (A549 NSCLC) was 32.2 µM and > 10 µM. For the same compound, the GI50 (ACHN renal) was 13.2 µM and > 10 µM, the TGI (ACHN renal) was 36 µM and > 10 µM and the GI50 (BT-549 breast) was 14.5 µM and > 10 µM. For the same compound, the TGI (BT-549 breast) was 34.4 µM and > 10 µM, the GI50 (CAKI-1 renal) was 10.3 µM and > 10 µM and the TGI (CAKI-1 renal) was 30.8 µM and > 10 µM. The GI50 (CCRF-CEM leukemia) was 13.9 µM and 6.85 µM, the TGI (CCRF-CEM leukemia) was 70.6 µM and > 10 µM and the GI50 (COLO 205 colon) was 5.58 µM and > 10 µM. For the same compound, the TGI (COLO 205 colon) was 20.6 µM and > 10 µM, the GI50 (DU-145 prostate) was 12.4 µM and > 10 µM and the TGI (DU-145 prostate) was 33.6 µM and > 10 µM. For the same compound, the GI50 (EKVX NSCLC) was 7.89 µM and > 10 µM, the TGI (EKVX NSCLC) was 43.5 µM and > 10 µM and the GI50 (HCC-2998 colon) was 12.5 µM and > 10 µM. For the same compound, the TGI (HCC-2998 colon) was 30.3 µM and > 10 µM, the GI50 (HCT-116 colon) was 12.3 µM and > 10 µM and the TGI (HCT-116 colon) was 27.4 µM and > 10 µM. For the same compound, the GI50 (HCT-15 colon) was 10.1 µM and > 10 µM, the TGI (HCT-15 colon) was 27.1 µM and > 10 µM and the GI50 (HL-60(TB) leukemia) was 16.5 µM and > 10 µM. The TGI (HL-60(TB) leukemia) was 49.4 µM and > 10 µM, the GI50 (HOP-62 NSCLC) was 11.4 µM and > 10 µM and the TGI (HOP-62 NSCLC) was 29.4 µM and > 10 µM. The GI50 (HOP-92 NSCLC) was 9.46 µM and 3.77 µM, the TGI (HOP-92 NSCLC) was 28.6 µM and > 10 µM and the GI50 (HS 578T breast) was 3.33 µM and 2.55 µM. For the same compound, the TGI (HS 578T breast) was 32.2 µM and > 10 µM, the GI50 (HT29 colon) was 4.89 µM and > 10 µM and the TGI (HT29 colon) was 17.3 µM and > 10 µM. For the same compound, the GI50 (IGROV1 ovarian) was 12.2 µM and > 10 µM, the TGI (IGROV1 ovarian) was 40.7 µM and > 10 µM and the GI50 (K-562 leukemia) was 7.27 µM and 8.71 µM. The TGI (K-562 leukemia) was 44.8 µM and > 10 µM, the GI50 (KM12 colon) was 3.53 µM and 3.56 µM and the TGI (KM12 colon) was 15.3 µM and > 10 µM. For the same compound, the GI50 (LOX IMVI melanoma) was 11.5 µM and > 10 µM, the TGI (LOX IMVI melanoma) was 26.3 µM and > 10 µM and the GI50 (M14 melanoma) was 4.62 µM and > 10 µM. The TGI (M14 melanoma) was 19.2 µM and > 10 µM, the GI50 (MALME-3M melanoma) was 12.3 µM and > 10 µM and the TGI (MALME-3M melanoma) was 30.7 µM and > 10 µM. For the same compound, the GI50 (MCF7 breast) was 6.34 µM and > 10 µM, the TGI (MCF7 breast) was 33.6 µM and > 10 µM and the GI50 (MDA-MB-231 breast) was 8.7 µM and > 10 µM. For the same compound, the TGI (MDA-MB-231 breast) was 26.1 µM and > 10 µM, the GI50 (MDA-MB-435) was 5.92 µM and > 10 µM and the TGI (MDA-MB-435) was 22.7 µM and > 10 µM. For the same compound, the GI50 (MOLT-4 leukemia) was 4.02 µM and 3.28 µM, the TGI (MOLT-4 leukemia) was 21.9 µM and > 10 µM and the GI50 (NCI-H226 lung) was 4.91 µM and 3.94 µM. The TGI (NCI-H226 lung) was 27.2 µM and > 10 µM, the GI50 (NCI-H23 lung) was 10.3 µM and > 10 µM and the TGI (NCI-H23 lung) was 32 µM and > 10 µM. For the same compound, the GI50 (NCI-H460 lung) was 12.9 µM and > 10 µM, the TGI (NCI-H460 lung) was 30 µM and > 10 µM and the GI50 (NCI-H522 lung) was 10.5 µM and > 10 µM. The TGI (NCI-H522 lung) was 29.3 µM and > 10 µM, the GI50 (NCI/ADR-RES ovarian) was 7.68 µM and > 10 µM and the TGI (NCI/ADR-RES ovarian) was 38.7 µM and > 10 µM. The GI50 (OVCAR-3 ovarian) was 14.4 µM and > 10 µM, the TGI (OVCAR-3 ovarian) was 33.7 µM and > 10 µM and the GI50 (OVCAR-4 ovarian) was 3.6 µM and 6.33 µM. The TGI (OVCAR-4 ovarian) was 19.2 µM and > 10 µM, the GI50 (OVCAR-5 ovarian) was 23 µM and > 10 µM and the TGI (OVCAR-5 ovarian) was 50.8 µM and > 10 µM. The GI50 (OVCAR-8 ovarian) was 5.34 µM and > 10 µM, the TGI (OVCAR-8 ovarian) was 28.6 µM and > 10 µM and the GI50 (PC-3 prostate) was 9.65 µM and > 10 µM. For the same compound, the TGI (PC-3 prostate) was 34 µM and > 10 µM, the GI50 (RPMI-8226 leukemia) was 5.76 µM and 5.99 µM and the TGI (RPMI-8226 leukemia) was 44.2 µM and > 10 µM. For the same compound, the GI50 (RXF 393 renal) was 9.75 µM and > 10 µM, the TGI (RXF 393 renal) was 25.8 µM and > 10 µM and the GI50 (SF-268 CNS) was 6.25 µM and > 10 µM. For the same compound, the TGI (SF-268 CNS) was 29.3 µM and > 10 µM, the GI50 (SF-295 CNS) was 4.83 µM and 5.24 µM and the TGI (SF-295 CNS) was 24.4 µM and > 10 µM. The GI50 (SF-539 CNS) was 10.6 µM and 8.14 µM, the TGI (SF-539 CNS) was 24.4 µM and > 10 µM and the GI50 (SK-MEL-2 melanoma) was 17.6 µM and > 10 µM. For the same compound, the TGI (SK-MEL-2 melanoma) was 37.2 µM and > 10 µM, the GI50 (SK-MEL-28 melanoma) was 13.2 µM and > 10 µM and the TGI (SK-MEL-28 melanoma) was 30.2 µM and > 10 µM. For the same compound, the GI50 (SK-MEL-5 melanoma) was 5.49 µM and 4.3 µM, the TGI (SK-MEL-5 melanoma) was 19.2 µM and > 10 µM and the GI50 (SK-OV-3 ovarian) was 8.8 µM and > 10 µM. For the same compound, the TGI (SK-OV-3 ovarian) was 32.5 µM and > 10 µM, the GI50 (SN12C renal) was 13.9 µM and > 10 µM and the TGI (SN12C renal) was 30.6 µM and > 10 µM. The GI50 (SNB-19 CNS) was 10.8 µM and > 10 µM, the TGI (SNB-19 CNS) was 37.2 µM and > 10 µM and the GI50 (SNB-75 CNS) was 2.2 µM and 2.48 µM. The TGI (SNB-75 CNS) was 13.6 µM and > 10 µM, the GI50 (SR leukemia) was 6.13 µM and 6.63 µM and the TGI (SR leukemia) was 42.2 µM and > 10 µM. For the same compound, the GI50 (SW-620 colon) was 10.6 µM and > 10 µM, the TGI (SW-620 colon) was 26.8 µM and > 10 µM and the GI50 (T-47D breast) was 4.36 µM and 4.5 µM. For the same compound, the TGI (T-47D breast) was 28.3 µM and > 10 µM, the GI50 (TK-10 renal) was 13.5 µM and > 10 µM and the TGI (TK-10 renal) was 36.4 µM and > 10 µM. For the same compound, the GI50 (U251 CNS) was 10.1 µM and > 10 µM, the TGI (U251 CNS) was 24.8 µM and > 10 µM and the GI50 (UACC-257 melanoma) was 11.5 µM and > 10 µM. For the same compound, the TGI (UACC-257 melanoma) was 25.8 µM and > 10 µM, the GI50 (UACC-62 melanoma) was 8.56 µM and the TGI (UACC-62 melanoma) was 25 µM. The GI50 (UO-31 renal) was 3.78 µM and 6.32 µM and the TGI (UO-31 renal) was 17.7 µM and > 10 µM.
